These results are taken from patent US7074789B2, “Kinase inhibitors” (Amgen Inc., priority 1999, dated 2006).

Holding throughout (format): biochemical
Assay [1] deals with T1, FGFR1 (Homo sapiens, UniProt P11362).
T1 construct: Kinases are expressed as either kinase domains or full length constructs; made in house
Briefly: Kinase inhibition assay (33P transfer), FGFR1. The following applies: read-out: FGFR1-1.

The target in assay [2] is T2, PDGFRB (Homo sapiens, UniProt P09619).
T2 construct: Kinases are expressed as either kinase domains or full length constructs; made in house
Briefly: Kinase inhibition assay (33P transfer), PDGFRB. The following applies: read-out: PDGFRB-1.

Assay [3] addresses T3, ErbB4 (Homo sapiens, UniProt Q15303).
T3 construct: Kinases are expressed as either kinase domains or full length constructs; made in house
Kind of assay: Kinase inhibition assay (33P transfer), ErbB4. The settings on record: read-out: ErbB4-1.

Assay [4] concerns the target T4, Itk (Homo sapiens, UniProt Q08881).
T4 construct: Kinases are expressed as either kinase domains or full length constructs; made in house
T4 sequence (Q08881 1-620): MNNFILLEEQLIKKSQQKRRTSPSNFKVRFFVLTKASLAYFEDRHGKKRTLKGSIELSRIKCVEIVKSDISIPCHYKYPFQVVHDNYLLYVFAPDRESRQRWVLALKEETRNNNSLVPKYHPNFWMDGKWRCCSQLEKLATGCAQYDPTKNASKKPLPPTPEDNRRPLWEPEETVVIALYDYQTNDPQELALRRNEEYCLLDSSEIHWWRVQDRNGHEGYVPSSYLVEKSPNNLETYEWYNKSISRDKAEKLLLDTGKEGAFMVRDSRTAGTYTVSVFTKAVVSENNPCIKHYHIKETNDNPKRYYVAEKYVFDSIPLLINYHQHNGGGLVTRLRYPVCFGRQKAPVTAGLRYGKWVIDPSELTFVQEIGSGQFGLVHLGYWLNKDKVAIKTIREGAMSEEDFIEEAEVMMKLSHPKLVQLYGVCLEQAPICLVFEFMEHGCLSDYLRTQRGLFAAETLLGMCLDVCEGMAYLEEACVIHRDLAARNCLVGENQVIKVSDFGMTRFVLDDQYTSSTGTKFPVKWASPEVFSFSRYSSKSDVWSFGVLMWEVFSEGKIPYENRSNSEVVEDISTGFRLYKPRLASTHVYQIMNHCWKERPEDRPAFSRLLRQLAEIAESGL
Kind of assay: Kinase inhibition assay (33P transfer), Itk. The following applies: Table 3; read-out: Itk-1. The method, boiled down: (§1)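 IC50: inhibitor concentration lowering 33P incorporation into immobilised substrate by 50%. Label transferred from ATP to poly(Glu,Tyr) 4:1 or poly(Arg,Ser) 3:1 is measured after a 0.5% phosphoric acid wash by liquid scintillation.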

In assay [5] the target is T5, Kdr (Homo sapiens, UniProt P35968).
T5 construct: Kinases are expressed as either kinase domains or full length constructs; made in house
Briefly: Kinase inhibition assay (33P transfer), Kdr. The settings on record: Table 3; read-out: KDR-1. The procedure, abridged: (§2)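 Recombinant kinase-domain or full-length fusion proteins (GST or His tag) served as enzyme. Substrate poly(Glu,Tyr) 4:1 or poly(Arg,Ser) 3:1 was bound to the plate; transferred 33P was read by liquid scintillation following acid washing.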

The target of assay [6] is T6, c-Met (Homo sapiens, UniProt P08581).
T6 construct: Kinases are expressed as either kinase domains or full length constructs; made in house
Kind of assay: Kinase inhibition assay (33P transfer), c-Met. The settings on record: Table 2, kinase inhibition class; read-out: Met-1. The procedure, abridged:
as §1

The target of assay [7] is T7, Fyn (Homo sapiens, UniProt P06241).
T7 construct: Kinases are expressed as either kinase domains or full length constructs; made in house
Kind of assay: Kinase inhibition assay (33P transfer), Fyn. The following applies: read-out: Fyn-1. The method, boiled down: as §1

The target of assay [8] is T8, Flt-1 (Homo sapiens, UniProt P17948).
T8 construct: Kinases are expressed as either kinase domains or full length constructs; made in house
Kind of assay: Kinase inhibition assay (33P transfer), Flt-1. The method, boiled down: as §1

Assay [9] addresses T9, IGFR-1 (Homo sapiens, UniProt P08069).
T9 construct: Kinases are expressed as either kinase domains or full length constructs; made in house
Briefly: Kinase inhibition assay (33P transfer), IGFR-1. The following applies: Table 2, kinase inhibition class.

In assay [10] the target is T10, AKT (Homo sapiens, UniProt Q9Y243).
T10 construct: Kinases are expressed as either kinase domains or full length constructs; made in house
Briefly: Kinase inhibition assay (33P transfer), AKT. The settings on record: Table 2, kinase inhibition class; read-out: AKT3-1. The procedure, abridged: as §2

T7 sequence (P06241 whole entry, species assumed, the tested form may be a part): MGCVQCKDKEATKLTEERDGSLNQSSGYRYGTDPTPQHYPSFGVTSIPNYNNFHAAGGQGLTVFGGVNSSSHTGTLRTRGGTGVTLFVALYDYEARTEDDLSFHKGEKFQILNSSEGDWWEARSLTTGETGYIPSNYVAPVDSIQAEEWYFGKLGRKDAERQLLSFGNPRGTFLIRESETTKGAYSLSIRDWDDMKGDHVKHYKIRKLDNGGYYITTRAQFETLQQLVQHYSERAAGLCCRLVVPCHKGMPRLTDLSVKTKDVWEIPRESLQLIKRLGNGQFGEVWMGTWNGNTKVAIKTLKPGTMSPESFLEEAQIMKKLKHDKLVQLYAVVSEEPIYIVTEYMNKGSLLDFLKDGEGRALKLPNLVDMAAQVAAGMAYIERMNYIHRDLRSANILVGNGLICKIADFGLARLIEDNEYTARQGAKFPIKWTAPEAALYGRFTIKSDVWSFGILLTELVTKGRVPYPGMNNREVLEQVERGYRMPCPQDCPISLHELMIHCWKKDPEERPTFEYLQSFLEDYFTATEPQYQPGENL
T2 sequence (P09619 33-1106, species assumed): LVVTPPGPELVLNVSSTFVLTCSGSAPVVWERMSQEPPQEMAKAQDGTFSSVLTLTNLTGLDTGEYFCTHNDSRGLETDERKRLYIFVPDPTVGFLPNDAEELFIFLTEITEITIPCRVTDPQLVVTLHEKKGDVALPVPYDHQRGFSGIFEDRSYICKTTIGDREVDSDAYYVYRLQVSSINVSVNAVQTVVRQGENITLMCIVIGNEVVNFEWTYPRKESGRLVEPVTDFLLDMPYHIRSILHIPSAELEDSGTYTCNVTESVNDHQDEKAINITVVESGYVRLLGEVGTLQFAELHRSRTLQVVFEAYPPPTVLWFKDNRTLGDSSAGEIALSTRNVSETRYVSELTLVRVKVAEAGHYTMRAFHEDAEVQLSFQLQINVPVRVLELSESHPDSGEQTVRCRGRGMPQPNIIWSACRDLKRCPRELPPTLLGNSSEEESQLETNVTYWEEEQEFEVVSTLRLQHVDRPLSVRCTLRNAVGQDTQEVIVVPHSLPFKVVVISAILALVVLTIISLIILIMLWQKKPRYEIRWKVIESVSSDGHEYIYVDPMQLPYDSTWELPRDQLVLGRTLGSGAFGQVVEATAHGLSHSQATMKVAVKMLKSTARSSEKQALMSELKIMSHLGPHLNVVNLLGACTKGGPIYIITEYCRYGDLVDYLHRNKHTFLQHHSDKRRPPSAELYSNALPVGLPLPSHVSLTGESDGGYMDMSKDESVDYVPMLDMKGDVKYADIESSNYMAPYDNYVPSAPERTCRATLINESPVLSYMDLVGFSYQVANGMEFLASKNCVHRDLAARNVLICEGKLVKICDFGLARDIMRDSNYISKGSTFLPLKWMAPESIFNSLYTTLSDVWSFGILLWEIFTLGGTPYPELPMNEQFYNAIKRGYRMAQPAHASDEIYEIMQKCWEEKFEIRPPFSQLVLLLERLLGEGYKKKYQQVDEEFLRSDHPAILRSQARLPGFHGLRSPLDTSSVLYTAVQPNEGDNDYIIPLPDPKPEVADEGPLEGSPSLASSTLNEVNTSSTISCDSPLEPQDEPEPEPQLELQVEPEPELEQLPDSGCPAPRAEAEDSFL
T1 sequence (P11362 22-822, species assumed): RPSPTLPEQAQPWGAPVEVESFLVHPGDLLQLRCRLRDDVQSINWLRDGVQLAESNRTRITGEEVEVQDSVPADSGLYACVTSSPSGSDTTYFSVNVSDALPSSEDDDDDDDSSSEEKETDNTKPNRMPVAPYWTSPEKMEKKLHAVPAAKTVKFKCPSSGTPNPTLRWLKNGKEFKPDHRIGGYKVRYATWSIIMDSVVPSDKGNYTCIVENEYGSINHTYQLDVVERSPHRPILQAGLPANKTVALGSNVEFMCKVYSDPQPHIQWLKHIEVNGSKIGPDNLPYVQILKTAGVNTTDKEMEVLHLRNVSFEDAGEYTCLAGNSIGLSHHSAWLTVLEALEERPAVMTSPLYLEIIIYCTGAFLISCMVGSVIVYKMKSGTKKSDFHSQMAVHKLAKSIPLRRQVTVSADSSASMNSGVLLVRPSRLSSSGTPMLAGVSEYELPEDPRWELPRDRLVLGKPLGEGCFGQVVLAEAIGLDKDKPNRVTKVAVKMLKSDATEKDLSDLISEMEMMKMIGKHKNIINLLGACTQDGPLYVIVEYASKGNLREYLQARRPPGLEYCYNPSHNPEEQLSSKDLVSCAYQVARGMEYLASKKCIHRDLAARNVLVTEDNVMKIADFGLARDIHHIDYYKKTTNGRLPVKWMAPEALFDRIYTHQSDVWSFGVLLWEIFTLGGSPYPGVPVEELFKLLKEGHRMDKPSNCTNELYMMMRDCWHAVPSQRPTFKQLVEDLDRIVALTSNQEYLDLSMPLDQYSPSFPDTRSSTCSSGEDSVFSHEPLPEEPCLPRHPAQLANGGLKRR
T8 sequence (P17948 27-1338, species assumed): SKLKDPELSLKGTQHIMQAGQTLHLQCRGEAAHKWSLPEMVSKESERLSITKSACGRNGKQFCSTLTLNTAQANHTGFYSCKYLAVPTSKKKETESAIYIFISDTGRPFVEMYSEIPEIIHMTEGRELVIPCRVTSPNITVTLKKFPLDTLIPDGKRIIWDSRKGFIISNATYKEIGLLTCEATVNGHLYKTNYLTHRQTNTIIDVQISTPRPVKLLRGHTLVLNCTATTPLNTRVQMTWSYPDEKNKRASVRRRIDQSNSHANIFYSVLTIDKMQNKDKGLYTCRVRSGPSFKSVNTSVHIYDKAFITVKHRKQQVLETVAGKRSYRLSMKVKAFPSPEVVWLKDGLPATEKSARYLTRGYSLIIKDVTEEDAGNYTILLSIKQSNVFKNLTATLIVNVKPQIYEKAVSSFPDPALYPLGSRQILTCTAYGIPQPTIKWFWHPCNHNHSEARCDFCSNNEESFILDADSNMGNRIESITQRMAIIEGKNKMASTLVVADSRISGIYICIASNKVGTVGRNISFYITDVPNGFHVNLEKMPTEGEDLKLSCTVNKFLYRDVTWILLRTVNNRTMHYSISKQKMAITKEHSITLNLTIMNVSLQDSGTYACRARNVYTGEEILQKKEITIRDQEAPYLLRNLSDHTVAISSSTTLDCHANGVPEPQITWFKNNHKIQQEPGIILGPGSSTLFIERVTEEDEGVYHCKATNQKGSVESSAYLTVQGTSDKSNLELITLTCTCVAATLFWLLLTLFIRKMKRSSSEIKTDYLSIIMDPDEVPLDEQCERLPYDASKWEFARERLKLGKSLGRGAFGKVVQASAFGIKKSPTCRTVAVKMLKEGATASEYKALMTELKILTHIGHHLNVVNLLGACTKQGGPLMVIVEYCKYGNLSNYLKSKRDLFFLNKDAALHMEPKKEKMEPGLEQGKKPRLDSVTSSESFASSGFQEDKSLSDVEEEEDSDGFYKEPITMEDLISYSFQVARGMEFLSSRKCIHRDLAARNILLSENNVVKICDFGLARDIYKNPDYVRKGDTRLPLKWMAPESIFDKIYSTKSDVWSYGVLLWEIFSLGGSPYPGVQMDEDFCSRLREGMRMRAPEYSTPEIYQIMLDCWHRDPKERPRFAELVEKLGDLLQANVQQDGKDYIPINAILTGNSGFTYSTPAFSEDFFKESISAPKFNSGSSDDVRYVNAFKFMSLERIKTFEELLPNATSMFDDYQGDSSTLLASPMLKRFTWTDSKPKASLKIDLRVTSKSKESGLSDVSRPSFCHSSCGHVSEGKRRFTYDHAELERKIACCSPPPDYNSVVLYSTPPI
T9 sequence (P08069 31-1367): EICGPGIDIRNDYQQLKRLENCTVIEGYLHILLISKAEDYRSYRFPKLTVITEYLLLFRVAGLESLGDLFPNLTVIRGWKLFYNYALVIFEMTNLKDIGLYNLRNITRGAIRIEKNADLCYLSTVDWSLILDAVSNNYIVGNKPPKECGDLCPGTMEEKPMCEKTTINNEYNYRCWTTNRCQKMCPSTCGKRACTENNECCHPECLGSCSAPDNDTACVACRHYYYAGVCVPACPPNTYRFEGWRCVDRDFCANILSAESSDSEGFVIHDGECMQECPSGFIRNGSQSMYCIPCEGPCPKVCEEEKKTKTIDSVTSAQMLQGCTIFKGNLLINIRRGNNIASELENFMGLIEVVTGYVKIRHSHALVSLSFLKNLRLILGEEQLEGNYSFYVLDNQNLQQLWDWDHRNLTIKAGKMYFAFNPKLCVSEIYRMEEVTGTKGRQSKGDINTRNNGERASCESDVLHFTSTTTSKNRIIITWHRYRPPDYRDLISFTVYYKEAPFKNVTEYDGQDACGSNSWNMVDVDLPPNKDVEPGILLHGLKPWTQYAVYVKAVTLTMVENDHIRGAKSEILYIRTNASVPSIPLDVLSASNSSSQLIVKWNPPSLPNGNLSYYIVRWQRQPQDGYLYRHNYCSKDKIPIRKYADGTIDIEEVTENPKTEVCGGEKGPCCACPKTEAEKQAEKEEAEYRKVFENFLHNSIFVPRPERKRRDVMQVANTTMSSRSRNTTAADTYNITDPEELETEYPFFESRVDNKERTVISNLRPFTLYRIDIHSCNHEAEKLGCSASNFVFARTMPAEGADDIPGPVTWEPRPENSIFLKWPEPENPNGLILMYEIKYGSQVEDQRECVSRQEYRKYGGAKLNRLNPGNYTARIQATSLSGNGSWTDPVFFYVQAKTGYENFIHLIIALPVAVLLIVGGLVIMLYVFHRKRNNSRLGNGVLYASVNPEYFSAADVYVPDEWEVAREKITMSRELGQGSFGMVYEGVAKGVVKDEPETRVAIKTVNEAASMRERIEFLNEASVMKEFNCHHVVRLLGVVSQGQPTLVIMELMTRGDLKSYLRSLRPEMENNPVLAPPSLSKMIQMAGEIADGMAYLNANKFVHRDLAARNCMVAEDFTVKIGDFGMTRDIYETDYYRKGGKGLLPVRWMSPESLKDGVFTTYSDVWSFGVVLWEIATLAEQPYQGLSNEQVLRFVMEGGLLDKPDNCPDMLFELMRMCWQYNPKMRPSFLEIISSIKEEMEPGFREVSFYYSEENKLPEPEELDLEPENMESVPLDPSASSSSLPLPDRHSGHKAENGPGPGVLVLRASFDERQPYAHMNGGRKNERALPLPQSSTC

As for `COc1cc(Nc2ncnc(-n3ccc4c(OC)cccc43)n2)cc(OC)c1OC` [Compound 238], the IC50 was greater than 11 µM in [1]; 0.982 to 5.89 µM in assay [2]; greater than 11 µM in assay [3]; greater than 11 µM in [4]; 0.982 to 5.89 µM in assay [5]; greater than 11 µM in assay [6]. Also, the IC50 in [7], in assay [8], in assay [9] and in assay [10] was greater than 11 µM each time.
In the case of `COc1cc(Nc2ncnc(Nc3cc(-c4cccs4)n[nH]3)n2)cc(OC)c1OC` [Compound 318], the IC50 in [1] was 0.94 to 5.64 µM; in assay [2], less than 0.94 µM; in assay [3] it was less than 0.94 µM; in assay [4] it was 5.64 to 8.23 µM; in assay [5] it was less than 0.94 µM; in [6], less than 0.94 µM. The IC50 in assay [7] was less than 0.94 µM; in assay [8], less than 0.94 µM; in assay [9], less than 0.94 µM; in assay [10], 8.23 to 10.6 µM.
Take `COc1ccc(Nc2ncnc(N(CC(=O)O)c3ccc4c(c3)OCO4)n2)cc1OC` [Compound 320]: the IC50 in [1] was greater than 10.6 µM; in assay [2] it was greater than 10.6 µM; in [3], greater than 10.6 µM; in assay [4], greater than 10.6 µM; in assay [5], 5.64 to 8.23 µM; in [6] it was 5.64 to 8.23 µM. Besides, the IC50 in assay [7], in assay [8], in assay [9] and in assay [10] was greater than 10.6 µM each time.
On to `COc1cc(Nc2ncnc(N(c3ccccc3)c3nc4ccccc4[nH]3)n2)cc(OC)c1OC` [Compound 335], for which the IC50 in assay [1] is 7.45 to 9.58 µM; in [2], 7.45 to 9.58 µM; in assay [3] it was greater than 9.58 µM; in assay [4], greater than 9.58 µM; in [5], less than 0.852 µM; in assay [6], greater than 9.58 µM. In addition, the IC50 in [7] was greater than 9.58 µM; in [8] it was 0.852 to 5.11 µM; in [9], greater than 9.58 µM; in assay [10] it was greater than 9.58 µM.
For the compound `COc1ccc(Nc2ccc(Nc3ncnc(Nc4cc(OC)c(OC)c(OC)c4)n3)cc2)cc1` [Compound 922], the IC50 in assay [1] was 0.843 to 5.06 µM; in assay [2], 0.843 to 5.06 µM; in assay [3], less than 0.843 µM; in assay [4], greater than 9.48 µM; in [5], less than 0.843 µM; in [6], 5.06 to 7.38 µM. The IC50 in [7] was in the range of 0.843 to 5.06 µM; in [8], 5.06 to 7.38 µM; in [9] it was 0.843 to 5.06 µM; in [10] it was 0.843 to 5.06 µM.
In the case of `COc1ccc(Nc2ncnc(Nc3cc(-c4ccco4)n[nH]3)n2)cc1OC` [Compound 337], the IC50 was less than 1.05 µM in assay [1]; 1.05 to 6.33 µM in [2]; 1.05 to 6.33 µM in assay [3]; 1.05 to 6.33 µM in assay [4]; less than 1.05 µM in assay [5]; less than 1.05 µM in assay [6]. For the same compound, the IC50 was 1.05 to 6.33 µM in assay [7], less than 1.05 µM in assay [8], less than 1.05 µM in assay [9] and greater than 11.9 µM in assay [10].
In the case of `COCCOc1cc(Nc2ncnc(Nc3ccc(C)c(O)c3)n2)ccc1OC` [Compound 127], the IC50 is 1.01 to 6.04 µM in assay [1]; less than 1.01 µM in assay [2]; 1.01 to 6.04 µM in assay [3]; greater than 11.3 µM in [4]; less than 1.01 µM in [5]; greater than 11.3 µM in assay [6]. Moreover, the IC50 in [7] is less than 1.01 µM; in [8], less than 1.01 µM; in assay [9], 1.01 to 6.04 µM; in assay [10], greater than 11.3 µM.
As for `COc1ccc(Nc2ncnc(Nc3cccc(C)c3)n2)cc1OC` [Compound 108], the IC50 was 1.19 to 7.11 µM in assay [1]; 1.19 to 7.11 µM in [2]; 10.4 to 13.3 µM in [3]; greater than 13.3 µM in assay [4]; 7.11 to 10.4 µM in assay [5]; greater than 13.3 µM in assay [6]. The IC50 was 1.19 to 7.11 µM in assay [7], greater than 13.3 µM in [8], 7.11 to 10.4 µM in assay [9] and greater than 13.3 µM in assay [10].
Take `C=CCN(c1ccc(Cl)cc1)c1ncnc(Nc2cc(OC)c(OC)c(OC)c2)n1` [Compound 972]: the IC50 in [1] was 0.935 to 5.61 µM; in assay [2], less than 0.935 µM; in [3], 0.935 to 5.61 µM; in assay [4], greater than 10.5 µM; in assay [5] it was less than 0.935 µM; in assay [6], 0.935 to 5.61 µM. Moreover, the IC50 in assay [7] is 0.935 to 5.61 µM; in assay [8] it was 0.935 to 5.61 µM; in [9], 5.61 to 8.18 µM; in [10] it was greater than 10.5 µM.
Turning to `NC(=O)c1cccc(Nc2ncnc(Nc3cc(-c4ccco4)n[nH]3)n2)c1` [Compound 342], the IC50 in assay [1] was less than 1.1 µM; in [2], 1.1 to 6.62 µM; in [3], 1.1 to 6.62 µM; in assay [4] it was 1.1 to 6.62 µM; in assay [5] it was less than 1.1 µM; in [6] it was 1.1 to 6.62 µM. The IC50 in assay [7] is 1.1 to 6.62 µM; in assay [8], less than 1.1 µM; in [9] it was 1.1 to 6.62 µM; in assay [10], greater than 12.4 µM.
As to `CCOc1ccc(Nc2ncnc(Nc3ccc(C)c(O)c3)n2)cc1OCC` [Compound 121], the IC50 was 1.05 to 6.29 µM in assay [1]; less than 1.05 µM in [2]; 1.05 to 6.29 µM in assay [3]; 9.18 to 11.8 µM in assay [4]; less than 1.05 µM in assay [5]; 9.18 to 11.8 µM in assay [6]. Further, the IC50 in [7] is less than 1.05 µM; in assay [8], less than 1.05 µM; in [9], greater than 11.8 µM; in assay [10], greater than 11.8 µM.
For `Cc1cccc(Nc2ncnc(Nc3ccc(O)cc3)n2)c1` [Compound 107], the IC50 in assay [1] was in the range of 1.36 to 8.18 µM; in assay [2], 1.36 to 8.18 µM; in assay [3], 8.18 to 11.9 µM; in [4] it was 1.36 to 8.18 µM; in assay [5], 1.36 to 8.18 µM; in assay [6], 8.18 to 11.9 µM. Moreover, the IC50 is less than 1.36 µM in [7], less than 1.36 µM in assay [8], 1.36 to 8.18 µM in [9] and 1.36 to 8.18 µM in assay [10].
For `COc1cc(Nc2ncnc(-n3cnc4ccccc43)n2)cc(OC)c1OC` [Compound 186], the IC50 in assay [1] was greater than 11.9 µM; in assay [2] it was less than 1.06 µM; in [3] it was greater than 11.9 µM; in [4] it was greater than 11.9 µM; in assay [5] it was less than 1.06 µM; in assay [6], 1.06 to 6.34 µM. The IC50 is greater than 11.9 µM in [7], 1.06 to 6.34 µM in assay [8], 1.06 to 6.34 µM in assay [9] and greater than 11.9 µM in assay [10].
As to `COc1cc(Nc2ncnc(Nc3cc(F)ccc3F)n2)cc(OC)c1OC` [Compound 316], the IC50 in assay [1] is greater than 11.6 µM; in assay [2], less than 1.03 µM; in assay [3], greater than 11.6 µM; in assay [4] it was greater than 11.6 µM; in [5], less than 1.03 µM; in assay [6] it was greater than 11.6 µM. Further, the IC50 is 8.99 to 11.6 µM in assay [7], 8.99 to 11.6 µM in assay [8], less than 1.03 µM in assay [9] and greater than 11.6 µM in [10].
Turning to `COc1cc(Nc2ncnc(-n3c(NC(C)=O)nc4ccccc43)n2)cc(OC)c1OC` [Compound 334], the IC50 in assay [1] is 0.919 to 5.51 µM; in assay [2] it was 0.919 to 5.51 µM; in assay [3], greater than 10.3 µM; in [4], 0.919 to 5.51 µM; in assay [5], 0.919 to 5.51 µM; in [6], greater than 10.3 µM. The IC50 in [7] is greater than 10.3 µM; in assay [8] it was 0.919 to 5.51 µM; in assay [9], less than 0.919 µM; in assay [10], 5.51 to 8.04 µM.
For `COc1ccc2c(ccn2-c2ncnc(Nc3cc(OC)c(OC)c(OC)c3)n2)c1` [Compound 196], the IC50 in assay [1] was 5.89 to 8.59 µM; in assay [2], less than 0.982 µM; in assay [3], greater than 11 µM; in assay [4], greater than 11 µM; in [5] it was less than 0.982 µM; in assay [6] it was greater than 11 µM. Moreover, the IC50 was greater than 11 µM in assay [7], 0.982 to 5.89 µM in assay [8], 0.982 to 5.89 µM in assay [9] and greater than 11 µM in [10].
